In ChEMBL document CHEMBL1201862, “PubChem BioAssay data set” (2004):
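A five-concentration, 48-hour dose response in 96-well plates underlies each endpoint, interpolated linearly between surrounding concentrations. At the GI50, growth is halved.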 Activity calls are given as the source filed them. Cut-off read from the data, not from the text of the source: active = GI50 up to about 1.1 µM and inactive = higher. Square brackets hold non-standard residues; d marks the D form. Peptide text beside a SMILES is read from it. 2Nal = N[CH](Cc1ccc2ccccc2c1)C(=O)O

Assays:
Test in all cases: DTP human tumour cell line panel, 48 h
CCRF-CEM = system: CCRF-CEM
SK-MEL-2 = system: SK-MEL-2
T47D = system: T47D
OVCAR-4 = system: OVCAR-4
HOP-92 = system: HOP-92
HCT-116 = system: HCT-116
A549 = system: A549
SW-620 = system: SW-620
SK-MEL-5 = system: SK-MEL-5
SK-OV-3 = system: SK-OV-3
OVCAR-8 = system: OVCAR-8
HCC 2998 = system: HCC 2998
CAKI-1 = system: CAKI-1
COLO 205 = system: COLO 205
A498 = system: A498
NCI-H522 = system: NCI-H522
DU-145 = system: DU-145
RPMI-8226 = system: RPMI-8226
MDA-MB-435 = system: MDA-MB-435
MCF7 = system: MCF7

Measured: GI50

Cc1c(C)n(-c2ccccc2)c2nc(S(C)(=O)=O)nc(S(C)(=O)=O)c12
inactive: SK-MEL-2 2.07 µM | T47D 2.05 µM | OVCAR-4 1.65 µM | HOP-92 1.61 µM | HCT-116 1.53 µM | A549 16 µM | SK-MEL-5 12.7 µM | SK-OV-3 19.6 µM | OVCAR-8 2.19 µM | HCC 2998 23.3 µM | COLO 205 1.8 µM | A498 14.1 µM | NCI-H522 1.75 µM | DU-145 14.6 µM | RPMI-8226 2.65 µM | MDA-MB-435 1.79 µM | MCF7 1.25 µM
active: CCRF-CEM 0.634 µM | SW-620 0.228 µM | CAKI-1 0.171 µM

O=c1c2cc(I)ccc2nc(S)n1Cc1ccccc1
inactive: CCRF-CEM 5.69 µM | SK-MEL-2 14.6 µM | T47D > 100 µM | OVCAR-4 9.71 µM | HOP-92 8.75 µM | HCT-116 9.14 µM | A549 15.9 µM | SW-620 59 µM | SK-MEL-5 6.17 µM | SK-OV-3 27.5 µM | OVCAR-8 23.1 µM | HCC 2998 17.1 µM | CAKI-1 1.92 µM | COLO 205 > 100 µM | A498 18.8 µM | NCI-H522 3.96 µM | DU-145 20.2 µM | RPMI-8226 6.61 µM | MDA-MB-435 83.6 µM | MCF7 28.1 µM

O=c1c2c3c(sc2nc2n1NC=NN2)CCCC3
active: CCRF-CEM 0.731 µM
inactive: SK-MEL-2 19.4 µM | T47D 31.8 µM | OVCAR-4 17.6 µM | HOP-92 18.1 µM | HCT-116 17.9 µM | A549 > 83.4 µM | SW-620 17.6 µM | SK-MEL-5 16.4 µM | SK-OV-3 42.8 µM | OVCAR-8 24.7 µM | HCC 2998 24.4 µM | CAKI-1 18 µM | COLO 205 25.4 µM | A498 > 53.6 µM | NCI-H522 16.3 µM | DU-145 36.6 µM | RPMI-8226 20.5 µM | MDA-MB-435 12.8 µM | MCF7 13.8 µM

CSc1nc(Br)nc2ncn(C3CC(Oc4ccc(C)cc4)C(COc4ccc(C)cc4)O3)c12 (stereo not given)
inactive: CCRF-CEM > 100 µM | SK-MEL-2 > 100 µM | T47D > 100 µM | OVCAR-4 > 100 µM | HOP-92 34 µM | HCT-116 > 100 µM | A549 > 100 µM | SW-620 > 100 µM | SK-MEL-5 > 100 µM | SK-OV-3 > 100 µM | OVCAR-8 80.7 µM | HCC 2998 > 100 µM | CAKI-1 66.2 µM | COLO 205 > 100 µM | A498 > 100 µM | NCI-H522 > 100 µM | DU-145 > 100 µM | RPMI-8226 > 100 µM | MDA-MB-435 > 100 µM | MCF7 > 100 µM

CC1=NN=C(N)N/C1=C/C(Sc1ccc(Cl)cc1)c1cccs1 (stereo not given)
inactive: CCRF-CEM 3.52 µM | SK-MEL-2 13.4 µM | T47D 22 µM | OVCAR-4 16.5 µM | HOP-92 28.1 µM | HCT-116 13.6 µM | A549 10.3 µM | SW-620 15.9 µM | SK-MEL-5 11.5 µM | SK-OV-3 12 µM | OVCAR-8 16 µM | HCC 2998 12.4 µM | CAKI-1 15.7 µM | COLO 205 22.1 µM | A498 16.4 µM | NCI-H522 4.65 µM | DU-145 23.1 µM | RPMI-8226 12.2 µM | MDA-MB-435 13.3 µM | MCF7 6.53 µM

CC(C)(C)C(=O)/C=C(\OB(F)F)C(C)(C)C
inactive: CCRF-CEM > 100 µM | SK-MEL-2 > 100 µM | T47D > 100 µM | OVCAR-4 > 100 µM | HOP-92 > 100 µM | HCT-116 > 100 µM | A549 > 100 µM | SW-620 > 100 µM | SK-MEL-5 > 100 µM | SK-OV-3 > 100 µM | OVCAR-8 > 100 µM | HCC 2998 > 100 µM | CAKI-1 > 100 µM | COLO 205 > 100 µM | A498 > 100 µM | NCI-H522 > 100 µM | DU-145 > 100 µM | RPMI-8226 > 100 µM | MDA-MB-435 > 100 µM | MCF7 > 100 µM

C=C(COCO)C(C)=O
inactive: CCRF-CEM 2.86 µM | SK-MEL-2 22.8 µM | T47D 15.7 µM | OVCAR-4 17.9 µM | HOP-92 27 µM | HCT-116 13.5 µM | A549 26 µM | SW-620 3.3 µM | SK-MEL-5 17.5 µM | SK-OV-3 48.9 µM | OVCAR-8 8.51 µM | HCC 2998 27.9 µM | CAKI-1 2.5 µM | COLO 205 7.52 µM | A498 27.9 µM | NCI-H522 2.14 µM | DU-145 26 µM | RPMI-8226 2.94 µM | MDA-MB-435 14.2 µM | MCF7 16.3 µM

O=C(CCCN1CCC2(CC1)CC(c1ccccc1)OC2=O)c1ccc(F)cc1 (stereo not given)
inactive: CCRF-CEM 41.6 µM | SK-MEL-2 35.1 µM | T47D 16.2 µM | OVCAR-4 37.9 µM | HOP-92 26.9 µM | HCT-116 33.8 µM | A549 > 100 µM | SW-620 40.1 µM | SK-MEL-5 15 µM | SK-OV-3 > 100 µM | OVCAR-8 > 100 µM | HCC 2998 23.4 µM | CAKI-1 24.5 µM | COLO 205 17.3 µM | A498 24 µM | NCI-H522 > 100 µM | DU-145 64.9 µM | RPMI-8226 30.1 µM | MDA-MB-435 41.3 µM | MCF7 35.2 µM

Cc1nc2ccc(NCCN(C)C)c3c(=O)c4cc(O)ccc4n1c23
inactive: SK-MEL-2 3.35 µM | T47D 1.21 µM | SK-MEL-5 1.73 µM | A498 1.42 µM | DU-145 1.46 µM | RPMI-8226 1.19 µM | MDA-MB-435 1.82 µM
active: CCRF-CEM 0.0962 µM | OVCAR-4 0.63 µM | HOP-92 1.12 µM | HCT-116 0.0873 µM | A549 0.0933 µM | SW-620 0.122 µM | SK-OV-3 0.845 µM | OVCAR-8 0.248 µM | HCC 2998 0.252 µM | CAKI-1 0.25 µM | COLO 205 0.445 µM | NCI-H522 0.112 µM | MCF7 0.743 µM

CC(C)C(NC(=O)C(CCCCN)NC(=O)C(Cc1c[nH]c2ccccc12)NC(=O)C(Cc1ccc(O)cc1)NC(=O)C(CS)NC(=O)C(N)Cc1ccc2ccccc2c1)C(=O)NC(CS)C(=O)NC(C(N)=O)C(C)O (stereo not given) (H-[2Nal]CYWKVCT-NH2; configuration not given here)
active: HOP-92 < 0.01 µM
inactive: CCRF-CEM > 12.5 µM | SK-MEL-2 > 12.5 µM | T47D > 12.5 µM | OVCAR-4 > 12.5 µM | HCT-116 > 12.5 µM | A549 > 12.5 µM | SW-620 > 12.5 µM | SK-MEL-5 > 12.5 µM | SK-OV-3 > 12.5 µM | OVCAR-8 > 12.5 µM | HCC 2998 > 12.5 µM | CAKI-1 > 12.5 µM | COLO 205 > 12.5 µM | A498 > 12.5 µM | NCI-H522 > 12.5 µM | DU-145 > 12.5 µM | RPMI-8226 > 12.5 µM | MDA-MB-435 > 12.5 µM | MCF7 > 12.5 µM

C/C1=C\CC/C(C)=C/C=C(/C(C)C)CC/C(C(=O)O)=C/CC1 [CROTOCEMBRANEIC ACID]
inactive: CCRF-CEM 30.5 µM | SK-MEL-2 25.7 µM | T47D 23.2 µM | OVCAR-4 55.1 µM | HOP-92 92.3 µM | HCT-116 40.3 µM | A549 34.3 µM | SW-620 42.3 µM | SK-MEL-5 36 µM | SK-OV-3 35.5 µM | OVCAR-8 66.2 µM | HCC 2998 37.6 µM | CAKI-1 49.9 µM | COLO 205 19.9 µM | A498 21 µM | NCI-H522 38.1 µM | DU-145 61.2 µM | RPMI-8226 22.8 µM | MDA-MB-435 44.4 µM | MCF7 34.2 µM
